Assay results published in patent publication US20120173160A1, “METHODS AND SYSTEMS FOR QUANTITATIVELY ASSESSING BIOLOGICAL EVENTS USING ENERGY-PAIRED SCORING” (The Trustees of the University of Pennsylvania, priority 2010, published 2012).
“Also recorded” adds a separate entry of the source.

Columns and labels:
Type in all cases: cell-based
Akt-mTOR pathway = test: EPS Akt-mTOR pathway score in expression data set of cells treated with 1294 compounds; details: screen of 1294 compounds, strongest negative pathway scores
Procedure: A potential application of EPS is to identify inhibitors of a selected pathway by searching for compounds that induce gene expression changes with a strongly negative pathway score. To test EPS's ability to identify small-molecule inhibitors of a pathway from a large library of compounds, an Akt-mTOR pathway signature was developed using gene expression profiles from the prostates of transgenic mice expressing activated Akt that were treated with either the mTOR inhibitor RAD001 or a vehicle control (Majumder et al.). This signature was used to estimate Akt-mTOR pathway activity in a data set derived from three cell lines that had been treated with 1294 different compounds (Lamb et al.). […] In fact, test samples treated with LY-294002 represented 8 of the top 9 samples identified (FIG. 11A).

TGFβ pathway [1] = test: Western blot of Smad2 phosphorylation in NMuMG cells treated with TGF-β1; details: NMuMG cells, 0.15, 0.5, 1.5 or 15 ng/ml, 6 hours
Procedure: To determine whether EPS could quantitatively estimate signal pathway activity in a biological data set, a genome-wide expression data set was generated to reflect graded increases in TGFβ pathway activation by treating the mammary epithelial cell line, NMuMG, with increasing dosages of TGF-β1 for 6 hours. Signature genes were selected using a p-value of 10^−10 associated with the changes in expression without fold-change cutoff.
(§1) To determine whether EPS could quantitatively estimate dose-dependent increases in TGFβ pathway activity using gene expression data, EPS prediction was compared to biochemical analysis of phospho-Smad2 levels in the same samples. Using a previously published TGFβ signature generated from NMuMG cells treated with TGF-β1 for 24 hours, it was determined whether SVD or EPS could detect pathway activation in NMuMG cells treated with increasing doses of TGF-β1. SVD detected pathway activation only in samples treated with the highest dose of TGFβ (15 ng/ml; FIG. 6B).

TGFβ pathway [2] = test: EPS estimate of TGFβ pathway activity from gene expression of NMuMG cells treated with TGF-β1
Procedure: as §1
As expected from increasing TGFβ effects on mRNA levels over time, EPS predicted higher pathway activity in training set samples treated with TGF-β1 for 24 hours than in test samples treated with TGF-β1 for 6 hours. […] Therefore, a TGFβ signature was generated using NMuMG cells treated with the lowest dose of TGFβ (0.15 ng/ml) for the shortest period of time (6 hrs) as the training set. This signature was then used to test the ability of SVD and EPS to predict pathway activation at different TGFβ doses.

Row | Compound | test samples treated with the compound among the top 9 samples identified (Akt-mTOR pathway) | TGFβ pathway activity as levels of phosphorylated Smad2 (TGFβ pathway [1]) | EPS-predicted TGFβ pathway activation, signature from 24 hours treatment (TGFβ pathway [2]; NMuMG cells, 0.5, 1.5 and 15 ng/ml, 6 hours) | EPS-estimated TGFβ pathway activation, signature from 0.15 ng/ml for 6 hrs (TGFβ pathway [2]; NMuMG cells, increasing doses (0.5, 1.5, 15 ng/ml))
1 | O=c1cc(N2CCOCC2)oc2c(-c3ccccc3)cccc12 [LY-294002] | 8 |  |  | 
2 | TGF-β1: TGF-β1 used to treat the mammary epithelial cell line NMuMG |  | dose-dependent increase in TGFβ pathway activity; also recorded: elevated phospho-Smad2 was detected at all doses | significantly increased pathway activation | progressive increase of TGFβ pathway activation
